Reference: ChEMBL document CHEMBL4665644, “L-DOPA-quinone Mediated Recovery from GIRK Channel Firing Inhibition in Dopaminergic Neurons” (ACS Med Chem Lett, 2019)

Key:
[1] = molecular target: T1, G protein-activated inward rectifier potassium channel 2 (Mus musculus) (UniProt P48542); assay: Stabilization of GIRK2 channel in C57BL6 mouse brain DAergic neurons assessed as recovery of D2 receptor stimulation-mediated firing inhibition in presence of 100 nM quinpirole under continuous perfusion followed by treated at 300 uM measured after 15 mins by multi-electrode array (reference value: 4.07 +-/ 3.6%); format: tissue-based; set-up: scale not given: the % may be the effect or the level left
T1 sequence (whole entry): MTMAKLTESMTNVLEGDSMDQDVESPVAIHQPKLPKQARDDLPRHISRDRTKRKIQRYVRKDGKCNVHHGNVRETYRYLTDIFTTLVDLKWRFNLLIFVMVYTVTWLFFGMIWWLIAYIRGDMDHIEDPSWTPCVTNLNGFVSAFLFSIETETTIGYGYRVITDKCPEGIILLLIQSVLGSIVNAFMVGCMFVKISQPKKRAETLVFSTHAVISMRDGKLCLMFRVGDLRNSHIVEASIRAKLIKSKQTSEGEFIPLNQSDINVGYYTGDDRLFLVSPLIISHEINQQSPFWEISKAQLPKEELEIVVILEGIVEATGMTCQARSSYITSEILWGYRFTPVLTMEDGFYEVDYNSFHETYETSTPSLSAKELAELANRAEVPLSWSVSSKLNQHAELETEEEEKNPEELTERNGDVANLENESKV

[2] = molecular target: T1, G protein-activated inward rectifier potassium channel 2 (Mus musculus); assay: Stabilization of GIRK2 channel in C57BL6 mouse brain DAergic neurons assessed as recovery of GABAB receptor stimulation-mediated firing inhibition treated with 100 uM dopamine and 10 uM sulpiride D2 antagonist under continuous perfusion followed by 300 nM baclofen treated at 300 uM measured after 15 mins by multi-electrode array (reference value: 24.94 +-/ 14.46%); format: tissue-based; set-up: scale not given: the % may be the effect or the level left

Activity [1]: 81.8% | Activity [2]: 73.6%
Structure (SMILES): N[C@@H](CC1=CC(=O)C(=O)C=C1)C(=O)O
